In EP1889615A2, “Formulations for oral administration with a health promoting effect on the osteoarticular and muscleskeleton apparatus” (ROTTAPHARM S.P.A., priority 2006, dated 2008):
≈ marks a conversion by molar mass, not a printed value.

Columns and labels:
IL-1 = experiment: Human blood: LPS stimulated production (expression) of IL-1; type: cell-based
Experimental: (§1) 200 µl samples have been stimulated with 1 µg/ml of LPS for 24 hours at 37°C [Hartel et al. 2004], in the presence of the test products. The cytokines released into the plasma have been analysed using a multiple system for cytokines (Bio-Plex, Bio-Rad Laboratories, Milan, Italy) allowing the simultaneous determination of IL-1, TNFα and IL-10.

TNFα = experiment: Human blood: LPS stimulated production (expression) of TNFα; type: cell-based
Experimental: as §1

IL-10 = experiment: Human blood: LPS stimulated production (expression) of IL-10; type: cell-based
Experimental: as §1, with “Venous blood has been collected from healthy volunteers and treated with 0.38% Na citrate in order to prevent coagulation. 200 µl” for “200 µl”

TXB2 = experiment: Human blood: coagulation-induced thromboxane (TXB2) production, marker of platelet COX-1 activity; type: cell-based; conditions: for %Diff. vs control: TXB2
Experimental: The test products have been added to samples of human blood, collected from healthy volunteers, and then said samples allowed to coagulate by leaving to stand for 1 hour at 37°C. The thromboxane (TXB2) in the serum, a marker of platelet COX-1 activity (Panara et al. 1999], has been determined using a specific RIA method.

PGE2 [1] = experiment: Human blood: production of PGE2 stimulated by 100 µg/ml LPS, marker of monocyte COX-2 activity; type: cell-based
Experimental: Human blood has been collected from health volunteers and made uncoagulable with 0.38% Na citrate. The test products have been added to 200 µl samples and then said samples stimulated with 100 µg/ml of LPS for 24 hours at 37°C. The PGE2 in the plasma, a marker of monocyte COX-2 activity [Panara et al. 1999], has been determined using a specific RIA method.

PGE2 [2] = experiment: Rabbit chondrocytes: IL-1β-stimulated production of PGE2 (a COX-2 marker); type: cell-based, New Zealand white rabbits; conditions: for %Diff. vs control: PGE2, control = IL-1β
Experimental: Joint cartilage chondrocytes, obtained from New Zealand white rabbits, have been cultured using the technique described by Berenbaum [1994]. […] The test products have been added 20 minutes prior to stimulation. On completion of stimulation, the supernatant liquid has been collected and stored at -80°C until analysis. PGE2 in the culture medium has been measured using a radio-immunological method. The production of PGE2 in this model is a marker of the activity of the cyclooxygenases induced (COX-2) in cartilage from the proinflammatory stimulus represented by IL-1β.

[3] = system: zymosan-induced rat paw oedema; experiment: Rat: anti-inflammatory activity on zymosan-induced paw oedema; type: in vivo; conditions: for % Diff. vs. control / Diff. vs. control: oedema; for % Diff. vs. control / Diff. vs. control / Oedema: oral; for Oedema: area under curve 0-24 h
Experimental: The anti-inflammatory activities of the test products have been assessed according to Di Rosa et al. [1971] on rat paw oedema induced by a subplantar injection of 4 mg di zymosan in 0.1 ml of isotonic saline. Paw volume has been measured pletismographically at 0, 1, 2, 4, 6 and 24 hours following the injection of zymosan, and expressed in ml of difference, with respect to the baseline volume. The test products, suspended in 5 ml/kg of 5% methylcellulose, have been administered with a gastric probe 30 minutes prior to the injection of zymosan. Celecoxib, a known COX-2 inhibitor, widely used clinically, and administered orally at a dose of 10 mg/kg, has been used as a reference standard. In order to express the treatment effects numerically, the areas under the curves of paw volume increase from 0 to 24 hours have been measured, thus giving the measurement of paw oedema in mlx24 hours.

[4] = system: zymosan-induced rat paw hyperalgesia; experiment: Rat: analgesic activity (Randall and Selitto) on zymosan-induced paw hyperalgesia; type: in vivo; conditions: for % Diff. vs. control: analgesia; for % Diff. vs. control / Diff. vs. control / Analgesia: oral; for Diff. vs. control: difference of the Analgesia Δgx24h values; for Analgesia: area under analgesimetric curve 0-24 h
Experimental: The analgesic activities of the test products have been evaluated using the technique of Randall and Selitto [1957] on hyperalgesia induced in rat paw by a subplantar injection of 4 mg di zymosan in 0.1 ml of isotonic saline. The mechanical nociceptive threshold has been determined using an analgesimeter (Ugo Basile, Varese, Italy) at 0, 1, 2, 4, 6 and 24 hours following the injection of zymosan. The analgesimeter measures the weight (in grams) applied to the paw which causes the reflex retraction of the paw itself. The nociceptive threshold has been expressed as the difference (in grams) in nociceptive threshold at time 0. The test products have been administered orally 30 minutes prior to the injection of zymosan. Celecoxib, a known COX-2 inhibitor, widely used clinically as an analgesic-anti-inflammatory, and administered orally at a dose of 10 mg/kg, has been used as a reference standard. In order to express the treatment effects numerically, the areas under the curves of the analgesimetric weight increase on the inflamed paw have been measured from 0 to 24 hours, thus giving the measurement in g x 24 hours of the area under the analgesimetric curve.

[5] = system: tibial joint cartilage explants; experiment: Rabbit cartilage explants: protection against IL-1β-induced cartilage degradation (GAG release); conditions: for %Diff. vs baseline: GAG release, protection positive
Experimental: The explants (2 x 2 mm) have been transferred to plates with wells and equilibrated for 48 hours at 37°C with high glucose DMEM plus 10% FCS and 50 µg/ml gentamycin. Explants have then been stimulated for 48 hours with 1 ng/ml IL-1β in aphenolic DMEM, 1 g/l glucose, 50 µg/ml gentamycin and 1% BSA. IL-1β elicits strong activation of the enzymes which depolymerise the proteoglycan aggregates of the cartilage matrix, resulting in its degradation, with the release of the breakdown products, mainly represented by the various glycosaminoglycans (GAG) making up the proteoglycan aggregates, into the culture liquid. […] In order to assess the effects of the test products on IL-1β-induced cartilage degradation, they have been added to the cartilage explants 20 minutes prior to stimulation with IL-1β. Cartilage degradation has been assessed by expressing the GAG released into the culture liquid as a percentage of the total GAG measured following complete digestion of the cartilage explants using papain.

[6] = system: Mycobacterium tuberculosis; conditions: cited from earlier work
[7] = system: methicillin and penicillin-resistant strains of Staphylococcus aureus; conditions: cited from earlier work
[8] = 30 µM (Man, ASS as mangostin; ASS 30 = Man 30 + CGS 300)
[9] = 10 µM (Man, ASS as mangostin; ASS 10 = Man 10 + CGS 100)
[10] = 1 µM (Man, ASS as mangostin; ASS 1 = Man 1 + CGS 10)
[11] = oral doses of 40, 133 and 400 mg/kg
[12] = 10 mg/kg (Man, ASS as mangostin; ASS 10 = Man 10 + CGS 133)

N[C@H]1C(O)O[C@H](CO)[C@@H](O)[C@@H]1O.N[C@H]1C(O)O[C@H](CO)[C@@H](O)[C@@H]1O.O=S(=O)(O)O.[Cl-].[Cl-].[Na+].[Na+] (stereo partly shown) [CGS, Crystalline Glucosamine Sulphate]
IL-1 (IL-1; [8]): 4.65 ng/mL
IL-1 (IL-1; 100 µM): 4.72 ng/mL
IL-1 (IL-1; 300 µM): 4.69 ng/mL
%Diff. vs control (IL-1; IL-1, 30 µM (Man, ASS as mangostin; ASS 30 = Man 30 + CGS 300)): 2.1%
%Diff. vs control (IL-1; IL-1, 100 µM): 3.6%
%Diff. vs control (IL-1; IL-1, 300 µM): 3.1%
inhibitory activity (IL-1; IL-1, up to a concentration of 300 µM): no appreciable inhibitory activity
TNFα (TNFα; [8]): 14.70 ng/mL
TNFα (TNFα; 100 µM): 13.80 ng/mL
TNFα (TNFα; 300 µM): 12.70 ng/mL
%Diff. vs control (TNFα; TNFα, 30 µM (Man, ASS as mangostin; ASS 30 = Man 30 + CGS 300)): -7.9%
%Diff. vs control (TNFα; TNFα, 100 µM): -13.5%
%Diff. vs control (TNFα; TNFα, 300 µM): -20.4%
IC50 (TNFα; TNFα, Man/Eman and ASS as mangostin concentration): > 300 µM
inhibitory activity (TNFα; TNFα, even at concentrations of 300 µM): weakly inhibitory
IL-10 (IL-10; [8]): 0.25 ng/mL
IL-10 (IL-10; 100 µM): 0.26 ng/mL
IL-10 (IL-10; 300 µM): 0.27 ng/mL
%Diff. vs control (IL-10; IL-10 (increase positive), 30 µM (Man, ASS as mangostin; ASS 30 = Man 30 + CGS 300)): -3.5%
%Diff. vs control (IL-10; IL-10, 100 µM): 1.6%
%Diff. vs control (IL-10; IL-10, 300 µM): 6.3%
stimulatory or inhibitory activity (IL-10; IL-10, concentrations tested 30, 100 and 300 µM): no significant stimulatory or inhibitory activity
TXB2 (TXB2; [9]): 124 ng/mL
TXB2 (TXB2; 30 µM): 118 ng/mL
TXB2 (TXB2; 100 µM): 125 ng/mL
effect on the release of TXB2 (TXB2; Man 1, 3, 10, CGS 10, 30, 100 µM, Ass 1, 3, 10): no significant stimulatory or inhibitory activity
%Diff. vs control (TXB2; [9]): 3.3%
%Diff. vs control (TXB2; 30 µM): -1.7%
%Diff. vs control (TXB2; 100 µM): 4.2%
PGE2 (PGE2 [1]; [9]): 22.7 ng/mL
PGE2 (PGE2 [1]; 30 µM (ASS as mangostin; ASS 30 = Man 30 + CGS 300)): 24.3 ng/mL
PGE2 (PGE2 [1]; 100 µM): 23.5 ng/mL
%Diff. vs control (PGE2 [1]; PGE2, 10 µM (Man, ASS as mangostin; ASS 10 = Man 10 + CGS 100)): -7.3%
%Diff. vs control (PGE2 [1]; PGE2, 30 µM (ASS as mangostin; ASS 30 = Man 30 + CGS 300)): -0.8%
%Diff. vs control (PGE2 [1]; PGE2, 100 µM): -4.1%
stimulatory or inhibitory activity (PGE2 [1]; PGE2, concentrations of 10, 30 or 100 µM): no significant stimulatory or inhibitory activity
PGE2 (PGE2 [2]; [10]): 200 ng/mL
PGE2 (PGE2 [2]; 3 µM (Man as mangostin)): 180 ng/mL
PGE2 (PGE2 [2]; 10 µM): 210 ng/mL
%Diff. vs control (PGE2 [2]; [10]): 6.4%
%Diff. vs control (PGE2 [2]; 3 µM (Man as mangostin)): -4.3%
%Diff. vs control (PGE2 [2]; 10 µM): -11.7%
inhibitory or stimulatory activity (PGE2 [2]; PGE2, concentrations of 1, 3 or 10 µM): no significant inhibitory or stimulatory activity
% Diff. vs. control ([3]; 40 mg/kg): -1%
Diff. vs. control ([3]; 40 mg/kg): -0.1 mlx24 hours
% Diff. vs. control ([3]; 133 mg/kg): -2%
Diff. vs. control ([3]; 133 mg/kg): -0.3 mlx24 hours
% Diff. vs. control ([3]; 400 mg/kg): -4%
Diff. vs. control ([3]; 400 mg/kg): -0.6 mlx24 hours
anti-inflammatory activity [3, 11]: no significant anti-inflammatory activity
Oedema ([3]; 40 mg/kg): 15.6 Δmlx24h
Oedema ([3]; 133 mg/kg): 15.4 Δmlx24h
Oedema ([3]; 400 mg/kg): 15.2 Δmlx24h
% Diff. vs. control ([4]; 40 mg/kg): 1%
% Diff. vs. control ([4]; 133 mg/kg): -6%
% Diff. vs. control ([4]; 400 mg/kg): -4%
Diff. vs. control ([4]; 40 mg/kg): 7
Diff. vs. control ([4]; 133 mg/kg): -59
Diff. vs. control ([4]; 400 mg/kg): -46
analgesic activity [4, 11]: no significant analgesic activity
Analgesia ([4]; 40 mg/kg): 1079 Δgx24h
Analgesia ([4]; 133 mg/kg): 1012 Δgx24h
Analgesia ([4]; 400 mg/kg): 1026 Δgx24h
protection against IL-1β-induced cartilage degradation ([5]; 1 µM): 41%
%GAG released [5, 10]: 41%
%GAG released ([5]; 3 µM): 25%
%GAG released ([5]; 10 µM): 16%
protection against IL-1β-induced cartilage degradation ([5]; 3 mM CGS): 64%
protection against IL-1β-induced cartilage degradation ([5]; 10 mM CGS): 77%
%Diff. vs baseline [5, 10]: 40.6%
%Diff. vs baseline ([5]; 3 µM): 63.8%
%Diff. vs baseline ([5]; 10 µM): 76.8%
EC50 ([5]; read-out: PC50, 50% protective concentration, ASS with reference to CGS): 2300 nM

C[C@@H]1C[C@@H]([C@H](O)CC2CC(=O)NC(=O)C2)C(=O)[C@@H](C)C1 [CHX, Cycloheximide]
%GAG released ([5]; CHX 2.5 µg/ml): 12%
%Diff. vs baseline ([5]; CHX 2.5 µg/ml): 82.6%

Cc1ccc(-c2cc(C(F)(F)F)nn2-c2ccc(S(N)(=O)=O)cc2)cc1 [CLX, Celecoxib]
% Diff. vs. control [3, 12]: -30%
Diff. vs. control [3, 12]: -4.7 mlx24 hours
Oedema [3, 12]: 11.8 Δmlx24h
% Diff. vs. control [4, 12]: -46%
Diff. vs. control [4, 12]: -497
Analgesia [4, 12]: 574 Δgx24h

COc1c(O)cc2oc3cc(O)c(CC=C(C)C)c(O)c3c(=O)c2c1CC=C(C)C [α-mangostin]
MIC [6]: 6.25 µg/mL (≈ 15.2 µM)
MIC [7]: 1.6 µg/mL (≈ 3.9 µM)

COc1cc2oc3cc(O)c(OC)c(CC=C(C)C)c3c(=O)c2c(O)c1CC=C(C)C [β-mangostin]
MIC [6]: 6.25 µg/mL (≈ 14.7 µM)
MIC [7]: 1.6 µg/mL (≈ 3.77 µM)
